From BindingDB's records for PubMed 32898763 (n/a, 2020)

Assays:
[1] = molecular target: Prostaglandin G/H synthase 1 (Homo sapiens, UniProt P23219); test: Inhibition of COX-1 (unknown origin)
[2] = molecular target: T1, Prostaglandin G/H synthase 2 (Homo sapiens, UniProt P35354); test: Inhibition of COX-2 (unknown origin)
T1 sequence (P35354 whole entry): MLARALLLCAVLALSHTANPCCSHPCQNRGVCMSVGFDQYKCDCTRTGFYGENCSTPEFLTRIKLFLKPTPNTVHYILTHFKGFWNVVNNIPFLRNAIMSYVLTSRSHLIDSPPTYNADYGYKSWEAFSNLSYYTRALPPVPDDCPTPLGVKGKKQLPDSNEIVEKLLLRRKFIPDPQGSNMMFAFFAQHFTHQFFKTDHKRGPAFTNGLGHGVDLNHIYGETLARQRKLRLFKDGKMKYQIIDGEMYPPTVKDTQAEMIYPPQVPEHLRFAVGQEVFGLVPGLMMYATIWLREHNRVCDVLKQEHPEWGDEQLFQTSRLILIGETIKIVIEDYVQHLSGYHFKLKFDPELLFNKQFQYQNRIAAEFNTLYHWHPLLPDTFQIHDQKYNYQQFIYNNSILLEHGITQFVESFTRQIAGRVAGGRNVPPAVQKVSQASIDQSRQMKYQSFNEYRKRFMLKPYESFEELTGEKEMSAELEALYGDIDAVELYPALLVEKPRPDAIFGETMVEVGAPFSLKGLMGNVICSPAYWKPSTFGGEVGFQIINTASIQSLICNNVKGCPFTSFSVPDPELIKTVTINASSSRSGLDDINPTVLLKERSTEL

Sequence of Prostaglandin G/H synthase 1 (P23219 whole entry): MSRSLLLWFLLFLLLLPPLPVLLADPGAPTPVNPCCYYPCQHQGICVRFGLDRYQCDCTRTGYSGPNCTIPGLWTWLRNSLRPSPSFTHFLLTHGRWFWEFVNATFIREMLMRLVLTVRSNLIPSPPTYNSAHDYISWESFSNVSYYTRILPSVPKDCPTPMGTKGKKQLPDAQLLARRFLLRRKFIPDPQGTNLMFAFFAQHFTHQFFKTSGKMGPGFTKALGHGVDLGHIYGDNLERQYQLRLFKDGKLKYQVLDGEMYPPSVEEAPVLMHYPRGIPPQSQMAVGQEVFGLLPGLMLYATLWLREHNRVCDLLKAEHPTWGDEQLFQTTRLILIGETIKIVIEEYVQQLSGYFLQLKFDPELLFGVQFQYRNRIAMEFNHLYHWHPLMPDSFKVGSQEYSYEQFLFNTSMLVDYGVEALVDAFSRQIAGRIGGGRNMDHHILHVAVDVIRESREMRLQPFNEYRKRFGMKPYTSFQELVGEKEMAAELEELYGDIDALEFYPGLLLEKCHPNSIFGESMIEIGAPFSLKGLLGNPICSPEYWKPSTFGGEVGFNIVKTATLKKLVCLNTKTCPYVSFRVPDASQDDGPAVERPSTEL

| SMILES | IC50 [1] | IC50 [2] |
| --- | --- | --- |
| CCC(=CCN1Cc2cc(C)cc3nc(O)n(c23)C[C@@H]1C)CC | 9.56 µM | 100 nM |
| CC1Cn2c(S)nc3cc(Cl)cc(c32)CN1CC1CCC1 (stereo unspecified) | 9.56 µM | 100 nM |
| CCC(=CCN1Cc2cc(Cl)cc3nc(S)n(c23)CC1C)CC (stereo unspecified) | 9.56 µM | 100 nM |
